Laboratory results from patent US20140137294A1, “GLUCOSINOLATE TRANSPORTER PROTEIN AND USES THEREOF” (UNIVERSITY OF COPENHAGEN, priority 2010, published 2014).
Positions count from the first letter of the chain named. In names and notes the source's numbering stands. Where a SMILES comes first, the peptide text is derived from it.

T1: AtGTR1 (Arabidopsis thaliana, UniProt Q944G5)
T1 construct: A library of Arabidopsis transporters available as full length cDNAs from the RIKEN bioresource center; expressed in transfected cells; host or cells: Xenopus oocytes injected with in vitro transcribed cRNA
T1 sequence (Q944G5 31-636 limits assumed): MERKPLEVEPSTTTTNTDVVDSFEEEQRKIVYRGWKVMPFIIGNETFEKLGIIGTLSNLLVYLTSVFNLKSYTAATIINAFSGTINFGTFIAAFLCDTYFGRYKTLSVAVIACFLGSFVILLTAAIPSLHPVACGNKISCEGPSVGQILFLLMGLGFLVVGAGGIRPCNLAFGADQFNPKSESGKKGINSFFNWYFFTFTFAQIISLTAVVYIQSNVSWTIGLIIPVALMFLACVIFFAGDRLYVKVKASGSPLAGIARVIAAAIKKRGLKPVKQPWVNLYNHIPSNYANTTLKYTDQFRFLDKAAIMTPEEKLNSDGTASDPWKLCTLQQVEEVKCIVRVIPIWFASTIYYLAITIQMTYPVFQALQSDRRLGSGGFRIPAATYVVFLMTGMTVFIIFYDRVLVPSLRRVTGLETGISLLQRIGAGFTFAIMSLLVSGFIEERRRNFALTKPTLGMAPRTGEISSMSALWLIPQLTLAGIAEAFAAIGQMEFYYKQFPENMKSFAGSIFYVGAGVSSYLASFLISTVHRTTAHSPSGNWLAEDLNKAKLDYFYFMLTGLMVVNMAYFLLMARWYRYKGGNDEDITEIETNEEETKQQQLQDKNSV

T2: AtGTR2 (Arabidopsis thaliana, UniProt Q9LV10)
T2 construct: expressed in transfected cells; host or cells: Xenopus oocytes injected with in vitro transcribed cRNA (vector pNB1u)
T2 sequence (Q9LV10 1-616): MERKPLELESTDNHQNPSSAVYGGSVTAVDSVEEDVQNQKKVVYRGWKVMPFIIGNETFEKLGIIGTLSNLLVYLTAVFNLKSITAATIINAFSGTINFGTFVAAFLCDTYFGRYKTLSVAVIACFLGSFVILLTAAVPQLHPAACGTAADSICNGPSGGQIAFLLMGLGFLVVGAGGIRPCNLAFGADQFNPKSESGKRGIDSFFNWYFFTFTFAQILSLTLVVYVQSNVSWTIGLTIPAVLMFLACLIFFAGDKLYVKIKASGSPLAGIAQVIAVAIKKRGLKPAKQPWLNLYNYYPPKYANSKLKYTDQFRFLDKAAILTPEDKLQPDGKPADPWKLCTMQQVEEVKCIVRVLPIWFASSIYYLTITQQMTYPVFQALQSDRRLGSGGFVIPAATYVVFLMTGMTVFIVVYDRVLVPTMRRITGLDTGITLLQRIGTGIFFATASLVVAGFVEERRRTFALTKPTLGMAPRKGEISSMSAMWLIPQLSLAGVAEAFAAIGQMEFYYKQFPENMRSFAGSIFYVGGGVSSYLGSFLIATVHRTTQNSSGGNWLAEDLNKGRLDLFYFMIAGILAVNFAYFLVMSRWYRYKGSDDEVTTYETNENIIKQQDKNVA

B1: GTR2 T58A: GTR2 of SEQ ID No: 4 with T at position 58 for A (protein, listed as Arabidopsis thaliana)
chain: T2 sequence (Q9LV10 1-616) with T58A
B2: GTR2 T58D: GTR2 of SEQ ID No: 4 with T at position 58 for D (protein, listed as Arabidopsis thaliana)
chain: T2 sequence (Q9LV10 1-616) with T58D
B3: GTR2 T117A: GTR2 of SEQ ID No: 4 with T at position 117 for A (protein, listed as Arabidopsis thaliana)
chain: T2 sequence (Q9LV10 1-616) with T117A
B4: GTR2 T117D: GTR2 of SEQ ID No: 4 with T at position 117 for D (protein, listed as Arabidopsis thaliana)
chain: T2 sequence (Q9LV10 1-616) with T117D
B5: GTR1 S22A: GTR1 of SEQ ID NO: 2 with S at position 22 for A, mimicking dephosphorylation (protein, listed as Arabidopsis thaliana)
chain: T1 sequence (Q944G5 31-636 limits assumed) with S22A
B6: GTR1 T105D: GTR1 of SEQ ID NO: 2 with T at position 105 for D (protein, listed as Arabidopsis thaliana)
chain: T1 sequence (Q944G5 31-636 limits assumed) with T105D
B7: GTR1 T105A: GTR1 of SEQ ID NO: 2 with T at position 105 for A (protein, listed as Arabidopsis thaliana)
chain: T1 sequence (Q944G5 31-636 limits assumed) with T105A
B8: GTR1 S22D: GTR1 of SEQ ID NO: 2 with S at position 22 for D, mimicking phosphorylation (protein, listed as Arabidopsis thaliana)
chain: T1 sequence (Q944G5 31-636 limits assumed) with S22D

Columns and labels:
Assay type in all cases: cell-based
AtGTR1 = molecular target: T1, AtGTR1; assay: Substrate-induced currents in voltage-clamped Xenopus oocytes expressing AtGTR1; conditions: for currents on perfusion: 133 μM, pH 5, AtGTR1
AtGTR2 = molecular target: T2, AtGTR2; assay: Glucosinolate uptake by AtGTR2 expressing oocytes, LC-MS analysis of oocyte extracts; conditions: data not shown
Xenopus oocytes = assay: 4-MTB import by phosphorylation/dephosphorylation mimicking GTR1 and GTR2 constructs in oocytes (LC-MS); conditions: 100 μM 4-MTB, Kulori pH 5, one hour

Row | Molecule | currents on perfusion (AtGTR1) | 4-MTB transport activity (Xenopus oocytes) | other results
1 | C[S+]([O-])CCCC/C(=N/OS(=O)(=O)O)S[C@@H]1O[C@H](CO)[C@@H](O)[C@H](O)[C@H]1O (stereo partly shown) |  |  | inward current (AtGTR1; 100 μM substrate, pH 5, voltage clamped at −50 mV, AtGTR1): ~10 nA; uptake by AtGTR2 measured by LC-MS analysis of oocyte extracts (AtGTR2): took up
2 | C[C@H](N)C(=O)N[C@@H](Cc1cnc[nH]1)C(=O)O [ala-his] (H-Ala-His-OH) | did not result in any detectable currents |  | 
3 | CC(NC(=O)C(N)CC(=O)O)C(=O)O (stereo not shown) [asp-ala] | did not result in any detectable currents |  | 
4 | NCC(=O)NCC(=O)NCC(=O)O [gly-gly-gly] (H-Gly-Gly-Gly-OH) | did not result in any detectable currents |  | 
5 | CC(C)C[C@H](NC(=O)CN)C(=O)O [gly-leu] | did not result in any detectable currents |  | 
6 | CSCC[C@H](N)C(=O)N[C@@H](C)C(=O)N[C@@H](CO)C(=O)O [met-ala-ser] (H-Met-Ala-Ser-OH) | did not result in any detectable currents |  | 
7 | O=S(=O)(O)O/N=C(\Cc1ccc(O)cc1)S[C@@H]1O[C@H](CO)[C@@H](O)[C@H](O)[C@H]1O [pOHBG, p-hydroxybenzyl-GSL] |  |  | uptake by AtGTR2 measured by LC-MS analysis of oocyte extracts (AtGTR2): took up
8 | B1 |  | keeps the transport activity intact | 
9 | B2 |  | inactivates the transport | 
10 | B3 |  | block the transport activity | 
11 | B4 |  | block the transport activity | 
12 | B5 |  | turns of f transport completely | 
13 | B6 |  | block the transport activity | 
14 | B7 |  | block the transport activity | 
15 | B8 |  | keeps the import intact | 
